Drawing on US20220289692A1, “NLRP3 INHIBITORS” (Inflazome Limited, priority 2019, published 2022), this text covers IC50 for 8 compounds.

T1 sequence (Q96P20 whole entry): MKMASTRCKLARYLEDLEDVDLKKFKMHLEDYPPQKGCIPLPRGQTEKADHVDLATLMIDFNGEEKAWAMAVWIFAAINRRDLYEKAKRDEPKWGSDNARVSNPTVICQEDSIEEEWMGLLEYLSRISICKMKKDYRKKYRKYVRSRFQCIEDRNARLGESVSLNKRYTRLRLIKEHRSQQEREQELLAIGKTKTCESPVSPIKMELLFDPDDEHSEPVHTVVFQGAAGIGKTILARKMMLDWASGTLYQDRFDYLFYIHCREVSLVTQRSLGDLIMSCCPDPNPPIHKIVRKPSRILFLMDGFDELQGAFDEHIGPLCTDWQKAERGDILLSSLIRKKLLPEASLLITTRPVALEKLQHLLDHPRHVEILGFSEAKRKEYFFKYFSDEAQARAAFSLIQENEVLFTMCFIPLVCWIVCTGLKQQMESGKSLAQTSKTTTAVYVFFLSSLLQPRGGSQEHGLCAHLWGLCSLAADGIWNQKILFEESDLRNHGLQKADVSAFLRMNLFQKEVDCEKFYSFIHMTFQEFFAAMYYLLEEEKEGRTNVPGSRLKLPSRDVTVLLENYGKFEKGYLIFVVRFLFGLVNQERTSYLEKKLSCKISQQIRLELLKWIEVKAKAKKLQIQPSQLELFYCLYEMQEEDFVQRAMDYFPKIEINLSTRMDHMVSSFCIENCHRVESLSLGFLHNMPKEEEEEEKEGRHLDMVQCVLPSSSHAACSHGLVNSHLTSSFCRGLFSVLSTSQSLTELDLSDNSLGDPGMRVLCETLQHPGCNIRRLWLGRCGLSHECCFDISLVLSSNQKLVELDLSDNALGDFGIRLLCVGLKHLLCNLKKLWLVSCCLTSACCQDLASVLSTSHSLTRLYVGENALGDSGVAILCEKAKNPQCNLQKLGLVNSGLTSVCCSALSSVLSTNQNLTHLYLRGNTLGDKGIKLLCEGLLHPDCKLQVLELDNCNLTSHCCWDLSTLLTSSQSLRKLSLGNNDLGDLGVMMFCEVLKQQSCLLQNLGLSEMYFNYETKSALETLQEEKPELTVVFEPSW

One assay concerns the target T1, NLRP3 (Homo sapiens, UniProt Q96P20). Nature of the assay: THP-1 cells pyroptosis assay (LPS priming, nigericin, resazurin read-out). Conditions: 1.0 μg/ml LPS, 3 hrs compound, nigericin 5 μM 1 hr. The assay is classed as cell-based. On the set-up: Seed THP-1 cells (25,000 cells/well) containing 1.0 μg/ml LPS in 40 μl of RPMI medium; host or cells: THP-1 cells, LPS-primed, nigericin-stimulated. How it is done:
THP-1 cells (ATCC #TIB-202) were grown in RPMI containing L-glutamine (Gibco #11835) supplemented with 1 mM sodium pyruvate (Sigma #S8636) and penicillin (100 units/ml)/streptomycin (0.1 mg/ml) (Sigma #P4333) in 10% Fetal Bovine Serum (FBS) (Sigma #F0804). The cells were routinely passaged and grown to confluency (˜10^6 cells/ml). On the day of the experiment, THP-1 cells were harvested and resuspended into RPMI medium (without FBS). The cells were then counted and viability (>90%) checked by Trypan blue (Sigma #T8154). Appropriate dilutions were made to give a concentration of 625,000 cells/ml. To this diluted cell solution was added LPS (Sigma #L4524) to give a […] Final Assay Concentration (FAC). 40 μl of the final preparation was aliquoted into each well of a 96-well plate. The plate thus prepared was used for compound screening. The following method step-by-step assay was followed for compound screening. • 1. Seed THP-1 cells (25,000 cells/well) containing 1.0 μg/ml LPS in 40 μl of RPMI medium (without FBS) in 96-well, black walled, clear bottom cell culture plates coated with poly-D-lysine (VWR #734-0317) • 2. Add 5 μl compound (8 points half-log dilution, with 10 μM top dose) or vehicle (DMSO 0.1% FAC) to the appropriate wells • 3. Incubate for 3 hrs at 37° C., 5% CO2 • 4. Add 5 μl nigericin (Sigma #N7143) (FAC 5 μM) to all wells • 5. Incubate for 1 hr at 37° C., 5% CO2 • 6. At the end of the incubation period, spin plates at 300×g for 3 mins and remove supernatant • 7. Then add 50 μl of resazurin (Sigma #R7017) (FAC 100 μM resazurin in RPMI medium without FBS) and incubate plates for a further 1-2 hrs at 37° C. and 5% CO2 • 8. Plates were read in an Envision reader at Ex 560 nm and Em 590 nm • 9. IC50 data is fitted to a non-linear regression equation (log inhibitor vs response-variable slope 4-parameters) The results of the pyroptosis assay are summarised in Table 1 below as THP IC50.
On the technique in general: Resazurin is reduced to fluorescent resorufin, in cell work by metabolically active cells.
For `CCOC(=O)c1nnc(Nc2c3c(cc4c2CCC4)CCC3)[nH]1` [Example 1, ethyl 5-((1,2,3,5,6,7-hexahydro-s-indacen-4-yl)amino)-4H-1,2,4-triazole-3-carboxylate], the IC50 was no more than 2 µM. Regarding `O=C(OCc1cccnc1)c1nnc(Nc2c3c(cc4c2CCC4)CCC3)[nH]1` [Example 2, pyridin-3-ylmethyl 5-((1,2,3,5,6,7-hexahydro-s-indacen-4-yl)amino)-4H-1,2,4-triazole-3-carboxylate], the IC50 is no more than 10 µM.

Take `COC(=O)c1nnc(Nc2c(-c3ccnc(OC4CCN(C)CC4)c3)ccc3c2CCC3)[nH]1` [Example 3]: the IC50 was no more than 10 µM. Same read-out and setting: in the case of `O=C(OCc1ccccc1)c1nnc(Nc2c3c(cc4c2CCC4)CCC3)[nH]1` [Example 4] it was no more than 5 µM; in that of `COC(=O)c1nnc(Nc2c3c(cc(C)c2-c2ccnc(OC)c2)CCC3)[nH]1` [Example 5], no more than 5 µM; in that of `CC(C)OC(=O)c1nnc(Nc2c3c(cc4c2CCC4)CCC3)[nH]1` [Example 6], no more than 10 µM. On to `COC(=O)c1nnc(Nc2c3c(cc4c2CCC4)CCC3)[nH]1` [Example 7], for which the IC50 was no more than 2 µM. Take `CCOC(=O)c1nnc(Nc2c(-c3ccnc(OC)c3)ccc3c2CCC3)[nH]1` [Example 8]: the IC50 was no more than 5 µM.

Another assay concerns the target T1, NLRP3. Nature of the assay: Human whole blood IL-1β release assay (LPS, nigericin, AlphaLisa). It counts as cell-based. More on the design: Plate out 80 μl of whole blood containing 1 μg/ml of LPS in 96-well, clear bottom cell culture plate; from tissue; host or cells: human whole blood from healthy donors, LPS-primed, nigericin-stimulated. The settings on record: 1 μg/ml LPS, 3 hrs compound, nigericin 10 μM 1 hr, read-out: HWB IC50. How it is done: For systemic delivery, the ability to inhibit NLRP3 when the compounds are present within the bloodstream is of great importance. For this reason, the NLRP3 inhibitory activity of a number of compounds in human whole blood was investigated in accordance with the following protocol.
Human whole blood in Li-heparin tubes was obtained from healthy donors from a volunteer donor panel. • 1. Plate out 80 μl of whole blood containing 1 μg/ml of LPS in 96-well, clear bottom cell culture plate (Corning #3585) • 2. Add 10 μl compound (8 points half-log dilution with 10 μM top dose) or vehicle (DMSO 0.1% FAC) to the appropriate wells • 3. Incubate for 3 hrs at 37° C., 5% CO2 • 4. Add 10 μl nigericin (Sigma #N7143) (10 μM FAC) to all wells • 5. Incubate for 1 hr at 37° C., 5% CO2 • 6. At the end of the incubation period, spin plates at 300×g for 5 mins to pellet cells and remove 20 μl of supernatant and add to 96-well v-bottom plates for IL-1β analysis (note: these plates containing the supernatants can be stored at −80° C. to be analysed at a later date) • 7. IL-1β was measured according to the manufacturer protocol (Perkin Elmer-AlphaLisa IL-1 Kit AL220F-5000) • 8. IC50 data is fitted to a non-linear regression equation (log inhibitor vs response-variable slope 4-parameters)
For orientation: Alpha assays give light when donor and acceptor beads are brought close together.
As for `CCOC(=O)c1nnc(Nc2c3c(cc4c2CCC4)CCC3)[nH]1` [Example 1, ethyl 5-((1,2,3,5,6,7-hexahydro-s-indacen-4-yl)amino)-4H-1,2,4-triazole-3-carboxylate], the IC50 is no more than 5 µM.

In general, IC50 refers to the concentration needed to halve the response being measured.
